Data as given in ChEMBL document CHEMBL5727714, “Amino compounds for treatment of medical disorders” (2020).

Molecular target: Complement factor D (Homo sapiens, UniProt P00746)
Assay: Inhibition Assay: Human Factor D (purified from human serum, Complement Technology, Inc.) at 80 nM final concentration is incubated with test compound at various concentrations for 5 minutes at room temperature in 50 mM Tris, 1M NaCl, pH 7.5. A synthetic substrate Z-L-Lys-SBzl and DTNB (Ellman's reagent) are added to final concentrations of 100 Î¼M each. Absorbance at 405 nm (A405) is recorded at 30 second intervals for 30 minutes using a microplate spectrophotometer. IC50 values are calculated by nonlinear regression of complement Factor D reaction rates as a function of test compound concentration.

Complement factor D, sequence (P00746 whole entry): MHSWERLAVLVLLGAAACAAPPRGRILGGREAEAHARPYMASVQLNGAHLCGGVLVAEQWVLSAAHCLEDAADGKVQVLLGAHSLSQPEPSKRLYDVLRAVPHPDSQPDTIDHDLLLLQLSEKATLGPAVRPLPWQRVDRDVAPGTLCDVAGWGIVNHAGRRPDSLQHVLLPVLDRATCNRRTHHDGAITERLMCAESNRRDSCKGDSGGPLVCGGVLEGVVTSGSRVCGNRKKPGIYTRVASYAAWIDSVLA

With `CC(=O)c1cn(CC(=O)N2C[C@H](F)C[C@H]2C(=O)Nc2cccc(Cl)c2C(F)(F)F)c2ccc(Nc3cncnc3)cc12` the IC50 was < 1 µM.
